Measurements taken from ChEMBL document CHEMBL1152778, “Design, synthesis, and biological evaluation of (2R,alphaS)-3,4-dihydro-2-[3-(1,1,2,2-tetrafluoroethoxy)phenyl]-5-[3-(trifluoromethoxy)-phenyl]-alpha-(trifluoromethyl)-1(2H)-quinolineethanol as potent and orally active cholesteryl ester transfer protein inhibitor” (J Med Chem, 2009).

Target: T1, Cholesteryl ester transfer protein (Homo sapiens, UniProt P11597)
T1 sequence (P11597 whole entry): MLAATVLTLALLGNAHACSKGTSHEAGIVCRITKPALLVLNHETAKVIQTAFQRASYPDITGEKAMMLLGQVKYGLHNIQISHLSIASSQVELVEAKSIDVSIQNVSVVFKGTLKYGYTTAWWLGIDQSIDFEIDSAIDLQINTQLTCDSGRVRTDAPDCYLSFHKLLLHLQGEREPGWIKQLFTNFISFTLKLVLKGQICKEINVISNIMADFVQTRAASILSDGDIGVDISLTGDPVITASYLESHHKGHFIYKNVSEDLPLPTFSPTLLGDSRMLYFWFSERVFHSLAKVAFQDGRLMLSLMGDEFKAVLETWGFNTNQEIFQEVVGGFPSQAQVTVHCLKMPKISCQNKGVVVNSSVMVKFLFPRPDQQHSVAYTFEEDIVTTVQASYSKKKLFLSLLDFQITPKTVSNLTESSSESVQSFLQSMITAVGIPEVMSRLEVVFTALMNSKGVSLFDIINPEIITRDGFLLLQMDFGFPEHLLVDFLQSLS
Assay: Inhibition of CETP-mediated transfer of [3H]cholesteryl ester from HDL donar particles to LDL acceptor particles

OC(CN1c2cccc(-c3cccc(OC(F)(F)F)c3)c2CCC1c1cccc(OC(F)(F)C(F)F)c1)C(F)(F)F (racemic)
IC50: 0.045 µM
